19 molecules from US10206902B2, “Mono- or di-substituted indoles as dengue viral replication inhibitors” (priority 2014, dated 2019) can be followed below.

Series [1] has as its system DENV-2 16681 strain. Description: DENV-2 antiviral assay (eGFP-labelled virus in Vero cells). It counts as cell-based, Dengue virus. To be noted: DENV-2 16681 eGFP, MOI 0.5, 3 days. How it is done: The antiviral activity of all the compounds of the invention was tested against DENV-2 16681 strain which was labeled with enhanced green fluorescent protein (eGPF). The culture medium consists of minimal essential medium supplemented with 2% of heat-inactivated fetal calf serum, 0.04% gentamycin (50 mg/mL) and 2 mM of L-glutamine. Vero cells, obtained from ECACC, were suspended in culture medium and 25 μL was added to 384-well plates (2500 cells/well), which already contain the antiviral compounds. Typically, these plates contain a 4-fold serial dilution of 9 dilution steps of the test compound at 200 times the final concentration in 100% DMSO (200 nL). In addition, each compound concentration is tested in quadruplicate (final concentration range: 25 μM-0.00038 μM). Finally, each plate contains wells which are assigned as virus controls (containing cells and virus in the absence of compound), cell controls (containing cells in the absence of virus and compound) and medium controls (containing medium in the absence of cells, virus and compounds). To the wells assigned as medium control, 25 μL of culture medium was added instead of Vero cells. Once the cells were added to the plates, the plates were incubated for 30 minutes at room temperature to allow the cells to distribute evenly within the wells. Next, the plates were incubated in a fully humidified incubator (37° C., 5% CO2) until the next day. Then, DENV-2 strain 16681, labeled with eGFP, was added at a multiplicity of infection (MOI) of 0.5. Therefore, 15 μL of virus suspension was added to all the wells containing test compound and to the wells assigned as virus control. In parallel, 15 μL of culture medium was added to the medium and cell controls. Next, the plates were incubated for 3 days in a fully humidified incubator (37° C., 5% CO2). At the day of the read out, the eGFP fluorescence was measured using an automated fluorescence microscope at 488 nm (blue laser). Using an in-house LIMS system, inhibition dose response curves for each compound were calculated and the half maximal effective concentration (EC50) was determined. Therefore, the percent inhibition (I) for every test concentration is calculated using the following formula: I=100*(ST−SCC)/(SVC−SCC); ST, SCC and SVC are the amount of eGFP signal in the test compound, cell control and virus control wells, respectively. The EC50 represents the concentration of a compound at which the virus replication is inhibited with 50%, as measured by a 50% reduction of the eGFP fluorescent intensity compared to the virus control. The EC50 is calculated using linear interpolation (Table 1).

The nature of series [2]: in vitro. It counts as cell-based. To be noted: African green monkey, CC50. How it is done:
(§1) In parallel, the toxicity of the compounds was assessed on the same plates. Once the read-out for the eGFP signal was done, 10 μL of resazurin, a cell viability stain, was added to all wells of the 384-well plates. The resazurin assay is based on the reduction of the blue resazurin by NADH, produced by the cells, into the highly fluorescent product, resorufin. The formation of pink fluorescent resorufin is directly related to the number of viable cells in the well. The plates were incubated for an additional 5 hours in a fully humidified incubator (37° C., 5% CO2). Next, the plates were measured on an Infinite reader (Tecan) using an excitation wavelength of 530 nm. The half maximal cytotoxic concentration (CO50) was also determined, defined as the concentration required to reduce the resazurin conversion by 50% compared to that of the cell control wells (Table 1). Finally, the selectivity index (SI) was determined for the compounds, which was calculated as followed: SI=CC50/EC50.

For series [3], the system named is Vero cells. Nature of the series: in vitro. It counts as cell-based. The note with it: African green monkey. How it is done:
as §1

The mark [4] stands for this setting: Dengue virus, DENV2, Vero, 72 h.

SMILES strings stand for the structures.

One may read the EC50 as the midpoint of the concentration-response curve. A word on the CC50: it is the concentration at which the toxic effect on the cells reaches its halfway point. In series [1] (setting [4]), `COc1cc(NC(C(=O)c2c[nH]c3cc(F)ccc23)c2ccc(F)cc2OC)cc(OCCO)c1` (racemic) [Compound 1, 1-(6-fluoro-1H-indol-3-yl)-2-(4-fluoro-2-methoxyphenyl)-2-((3-(2-hydroxyethoxy)-5-methoxyphenyl)amino)ethanone] displayed a half-maximal effective concentration (EC50) of 0.008 µM. Moreover, in series [2], half-maximal cytotoxicity (CC50) was put at 11 µM.
Regarding `COc1cc(NC(C(=O)c2c[nH]c3c(C)c(F)ccc23)c2ccc(F)cc2OC)cc(OCCO)c1` (racemic) [Compound 2, 2-(4-fluoro-2-methoxyphenyl)-1-(6-fluoro-7-methyl-1H-indol-3-yl)-2-((3-(2-hydroxyethoxy)-5-methoxyphenyl)amino)ethanone], the EC50 in series [1] (setting [4]) amounted to 0.0054 µM. This molecule yielded a CC50 in series [2] of 7 µM.
In the same order, the values of `COc1cc(NC(C(=O)c2c[nH]c3c(C)c(Cl)ccc23)c2ccc(F)cc2OC)cc(OCCO)c1` (racemic) [Compound 3, 1-(6-chloro-7-methyl-1H-indol-3-yl)-2-(4-fluoro-2-methoxyphenyl)-2-((3-(2-hydroxyethoxy)-5-methoxyphenyl)amino)ethanone] are 0.0021 µM and 6.3 µM.
The corresponding values for `COc1cc(NC(C(=O)c2c[nH]c3c(F)c(F)ccc23)c2ccc(F)cc2OC)cc(OCCO)c1` (racemic) [Compound 5, 1-(6,7-difluoro-1H-indol-3-yl)-2-(4-fluoro-2-methoxyphenyl)-2-((3-(2-hydroxyethoxy)-5-methoxyphenyl)amino)ethanone] are 0.0089 µM and 5.2 µM.
The corresponding values for `COc1cc(NC(C(=O)c2c[nH]c3cc(OC)c(F)cc23)c2ccc(F)cc2OC)cc(OCCO)c1` (racemic) [Compound 7, 2-(4-fluoro-2-methoxyphenyl)-1-(5-fluoro-6-methoxy-1H-indol-3-yl)-2-((3-(2-hydroxyethoxy)-5-methoxyphenyl)amino)ethanone] are 0.014 µM and > 9.7 µM.
Regarding `COc1cc(NC(C(=O)c2c[nH]c3c(Cl)c(OC)ccc23)c2ccc(F)cc2OC)cc(OCCO)c1` (racemic) [Compound 8, 1-(7-chloro-6-methoxy-1H-indol-3-yl)-2-(4-fluoro-2-methoxyphenyl)-2-((3-(2-hydroxyethoxy)-5-methoxyphenyl)amino)ethanone], the EC50 in series [1] (setting [4]) was 0.0039 µM. In series [2], this molecule showed a cytotoxic concentration (CC50) of 6.8 µM.
In the same order, the values of `COc1cc(NC(C(=O)c2c[nH]c3cc(F)c(F)cc23)c2ccc(F)cc2OC)cc(OCCO)c1` (racemic) [Compound 10, 1-(5,6-difluoro-1H-indol-3-yl)-2-(4-fluoro-2-methoxy-phenyl)-2-((3-(2-hydroxyethoxy)-5-methoxyphenyl)amino)ethanone] are 0.0068 µM and 9.3 µM.
In series [1] (setting [4]), `COc1cc(NC(C(=O)c2c[nH]c3c(C)c(OC)ccc23)c2ccc(F)cc2OC)cc(OCCO)c1` (racemic) [Compound 11, 2-(4-fluoro-2-methoxyphenyl)-2-((3-(2-hydroxyethoxy)-5-methoxyphenyl)amino)-1-(6-methoxy-7-methyl-1H-indol-3-yl)ethanone] showed an EC50 of 0.0024 µM. Besides, the CC50 in series [2] was determined as 10 µM.
In series [1], `COc1cc(NC(C(=O)c2c[nH]c3cc(F)ccc23)c2ccc(F)cc2OC)cc(OCCO)c1` (single isomer, unassigned) [Compound 1B, 1-(6-fluoro-1H-indol-3-yl)-2-(4-fluoro-2-methoxyphenyl)-2-((3-(2-hydroxyethoxy)-5-methoxyphenyl)amino)ethanone] showed a half-maximal effective concentration (EC50) of 0.66 µM. It took 12 µM to reach half-maximal cytotoxicity in series [2] (CC50).
The corresponding values for `COc1cc(NC(C(=O)c2c[nH]c3c(C)c(F)ccc23)c2ccc(F)cc2OC)cc(OCCO)c1` (single isomer, unassigned) [Compound 2A, 2-(4-fluoro-2-methoxyphenyl)-1-(6-fluoro-7-methyl-1H-indol-3-yl)-2-((3-(2-hydroxyethoxy)-5-methoxyphenyl)amino)ethanone] are 0.66 µM and 5.4 µM.
As to `COc1cc(NC(C(=O)c2c[nH]c3c(C)c(Cl)ccc23)c2ccc(F)cc2OC)cc(OCCO)c1` (single isomer, unassigned) [Compound 3B, 1-(6-chloro-7-methyl-1H-indol-3-yl)-2-(4-fluoro-2-methoxyphenyl)-2-((3-(2-hydroxyethoxy)-5-methoxyphenyl)amino)ethanone], the EC50 in series [1] came out at 0.18 µM. For the same molecule, the CC50 in series [2] was determined as 5.8 µM.
In the case of `COc1cc(NC(C(=O)c2c[nH]c3cc(Cl)ccc23)c2ccc(F)cc2OC)cc(OCCO)c1` (single isomer, unassigned) [Compound 4B, 1-(6-chloro-1H-indol-3-yl)-2-(4-fluoro-2-methoxyphenyl)-2-((3-(2-hydroxyethoxy)-5-methoxyphenyl)amino)ethanone], the EC50 in series [1] was 0.38 µM. In addition, in series [2], the midpoint of cytotoxicity, the CC50, lay at 7.7 µM.
In turn, `COc1cc(NC(C(=O)c2c[nH]c3c(F)c(F)ccc23)c2ccc(F)cc2OC)cc(OCCO)c1` (single isomer, unassigned) [Compound 5A, 1-(6,7-difluoro-1H-indol-3-yl)-2-(4-fluoro-2-methoxyphenyl)-2-((3-(2-hydroxyethoxy)-5-methoxyphenyl)amino)ethanone] registered an EC50 in series [1] of 0.44 µM. This molecule came in with a CC50 in series [2] of 7.4 µM.
`COc1cc(NC(C(=O)c2c[nH]c3cc(OC)c(C)cc23)c2ccc(F)cc2OC)cc(OCCO)c1` (single isomer, unassigned) [Compound 6B, 2-(4-fluoro-2-methoxyphenyl)-2-((3-(2-hydroxyethoxy)-5-methoxyphenyl)amino)-1-(6-methoxy-5-methyl-1H-indol-3-yl)ethanone]: in series [1], a half-maximal response (EC50) required 0.29 µM. The 50% cytotoxic concentration (CC50) in series [3] was determined as 9.6 µM.
In turn, `COc1cc(NC(C(=O)c2c[nH]c3c(Cl)c(OC)ccc23)c2ccc(F)cc2OC)cc(OCCO)c1` (single isomer, unassigned) [Compound 8B, 1-(7-chloro-6-methoxy-1H-indol-3-yl)-2-(4-fluoro-2-methoxyphenyl)-2-((3-(2-hydroxyethoxy)-5-methoxyphenyl)amino)ethanone] showed an EC50 in series [1] of 0.15 µM. This molecule gave a CC50 in series [2] of 9.1 µM.
Consider `COc1cc(NC(C(=O)c2c[nH]c3c(C)cc(F)cc23)c2ccc(F)cc2OC)cc(OCCO)c1` (single isomer, unassigned) [Compound 9A, 2-(4-fluoro-2-methoxyphenyl)-1-(5-fluoro-7-methyl-1H-indol-3-yl)-2-((3-(2-hydroxyethoxy)-5-methoxyphenyl)amino)ethanone], for which, in series [1], the EC50 amounted to 0.63 µM. This molecule returned a CC50 in series [2] of 8.8 µM.
For `COc1cc(NC(C(=O)c2c[nH]c3cc(F)c(F)cc23)c2ccc(F)cc2OC)cc(OCCO)c1` (single isomer, unassigned) [Compound 10A, 1-(5,6-difluoro-1H-indol-3-yl)-2-(4-fluoro-2-methoxy-phenyl)-2-((3-(2-hydroxyethoxy)-5-methoxyphenyl)amino)ethanone], in series [1], the half-maximal effective concentration (EC50) worked out at 0.58 µM. In series [2], this molecule returned a CC50 of 11 µM.
Take `COc1cc(NC(C(=O)c2c[nH]c3c(C)c(OC)ccc23)c2ccc(F)cc2OC)cc(OCCO)c1` (single isomer, unassigned) [Compound 11B, 2-(4-fluoro-2-methoxyphenyl)-2-((3-(2-hydroxyethoxy)-5-methoxyphenyl)amino)-1-(6-methoxy-7-methyl-1H-indol-3-yl)ethanone]: the EC50 in series [1] turned out to be 0.41 µM. This molecule yielded a CC50 in series [2] of 12 µM.
`COc1cc(NC(C(=O)c2c[nH]c3c(F)cc(C)cc23)c2ccc(F)cc2OC)cc(OCCO)c1` (single isomer, unassigned) [Compound 12A, 2-(4-fluoro-2-methoxyphenyl)-1-(7-fluoro-5-methyl-1H-indol-3-yl)-2-((3-(2-hydroxyethoxy)-5-methoxyphenyl)amino)ethanone] displayed an EC50 in series [1] of 0.93 µM. In series [2], this molecule yielded a 50% cytotoxic concentration (CC50) of 9.2 µM.
